Measurements taken from patent US4126616A, “N-propylnorapomorphine diesters” (Hinshaw; William B., priority 1976, dated 1978).
Where a name gives a salt, the structure may show the parent alone. Read-outs that look alike come from different tables or passages of the source.

System: caudate lesioned mouse
Assay: caudate lesioned mouse test (anti-parkinson activity)
Format: in vivo
Conditions: for responders at 132 µmol/kg / responders at 208 µmol/kg / responders at 26 µmol/kg / responders at 94 µmol/kg / responders at 6.5 µmol/kg / responders at 1.6 µmol/kg / responders at 3.2 µmol/kg / responders at 6 µmol/kg: Mus musculus; for responders at 132 µmol/kg: dose 0.132 m. mole/kg; for responders at 208 µmol/kg: dose 0.208 m. mole/kg; for ED50: caudate lesioned mouse, read-out: ED50; for responders at 26 µmol/kg: dose 0.026 m. mole/kg; for responders at 94 µmol/kg: dose 0.094 m. mole/kg; for responders at 6.5 µmol/kg: dose 0.0065 m. mole/kg; for responders at 1.6 µmol/kg: dose 0.0016 m. mole/kg; for responders at 3.2 µmol/kg: dose 0.0032 m. mole/kg; for responders at 6 µmol/kg: dose 0.006 m. mole/kg
Procedure: An index of anti-parkinson activity was determined using the caudate lesioned mouse test described by Lotti, Life Sci., 10, 781-789 (1971). The mice having unilateral lesions of the caudate nucleus prepared according to the method of Lotti supra were observed immediately after the surgical procedure for strong postural asymmetries directed to the same side as the lesion. When this asymmetry was not observed, the mice were discarded. Operated mice were allowed at least 14 days to recover prior to drug testing. The lesioned mice were tested with apomorphine using 1.7 mg./kg. of base administered intraperitoneally in a 1% suspension in gum tragacanth. […] Only those mice which twisted or circled toward the lesioned side in all three test periods after the apomorphine injection were retained for further drug testing. The test drugs were all administered in 1% gum tragacanth suspension in a volume of 0.1 ml./10 g. of body weight. Doses were expressed in mg./kg. of free base.
Results of tests in the caudate lesioned mouse test described above which were obtained on the compounds of the invention are given in the table below identified, in each case, by the example numbers above where their preparations are described. Corresponding data for reference apomorphine diesters described in German patent application No. 2,154,162 are given in a side-by-side relationship for a number of the species. The reference compounds, designated Ref. 1, Ref. 1B, Ref. 1C, Ref. 1D, Ref. 1E, Ref. 1F, Ref. 2 and Ref. 2A correspond, respectively, to the compounds of the invention identified by Examples 1, 1B, 1C, 1D, 1E, 1F, 2 and 2A and differ from the latter only in having a methyl group on the apomorphine nitrogen from instead of an n-propyl group as present in the instant compounds.

[1] = 0.5 h, 1/2 h post-drug, read-out: No. Mice Affected/No. Mice Tested, 1/2 h (converted)
[2] = 1 h post-drug, read-out: No. Mice Affected/No. Mice Tested, 1 h (converted)
[3] = 4 h post-drug, read-out: No. Mice Affected/No. Mice Tested, 4 h (converted)
[4] = 6 h post-drug, read-out: No. Mice Affected/No. Mice Tested, 6 h (converted)
[5] = 24 h post-drug, read-out: No. Mice Affected/No. Mice Tested, 24 h (converted)
[6] = total, read-out: No. Mice Affected/No. Mice Tested, Total (converted)
[7] = 1 h post-drug, read-out: No. Mice Affected/No. Mice Tested, 1 h
[8] = 2 h post-drug, read-out: No. Mice Affected/No. Mice Tested, 2 h (converted)
[9] = 24 h post-drug, read-out: No. Mice Affected/No. Mice Tested, 24 h
[10] = 0.5 h, 1/2 h post-drug, read-out: No. Mice Affected/No. Mice Tested, 1/2 h
[11] = 2 h post-drug, read-out: No. Mice Affected/No. Mice Tested, 2 h
[12] = 4 h post-drug, read-out: No. Mice Affected/No. Mice Tested, 4 h
[13] = 6 h post-drug, read-out: No. Mice Affected/No. Mice Tested, 6 h
[14] = total, read-out: No. Mice Affected/No. Mice Tested, Total

## CCCN1CCc2cccc3c2C1Cc1ccc(OC(=O)c2ccc(Cl)cc2)c(OC(=O)c2ccc(Cl)cc2)c1-3 (stereo not shown) [Ex. 1F, N-Propylnorapomorphine bis-4-chlorobenzoate]
[1]
  responders at 132 µmol/kg: 0%
  responders at 208 µmol/kg: 33.3%
[2]
  responders at 132 µmol/kg: 25%
[3]
  responders at 132 µmol/kg: 0%
  responders at 208 µmol/kg: 66.7%
[4]
  responders at 132 µmol/kg: 25%
  responders at 208 µmol/kg: 100%
[5]
  responders at 132 µmol/kg: 0%
  responders at 208 µmol/kg: 33.3%
[6]
  responders at 132 µmol/kg: 25%
  responders at 208 µmol/kg: 100%
[7]
  responders at 208 µmol/kg: 0%
Claimed N-propyl ester vs corresponding N-methyl reference ester
  Molar Potency Ratio Claimed/Ref. Ester: ≥ 3

## CCCN1CCc2cccc3c2C1Cc1ccc(OC(=O)c2ccccc2C)c(OC(=O)c2ccccc2C)c1-3 (stereo not shown) [Ex. 1G, N-Propylnorapomorphine bis-2-methylbenzoate]
  ED50: 26 µmol/kg
[1]
  responders at 26 µmol/kg: 25%
[2]
  responders at 26 µmol/kg: 50%
[8]
  responders at 26 µmol/kg: 50%
[3]
  responders at 26 µmol/kg: 50%
[4]
  responders at 26 µmol/kg: 50%
[9]
  responders at 26 µmol/kg: 0%
[6]
  responders at 26 µmol/kg: 50%

## CCCN1CCc2cccc3c2C1Cc1ccc(OC(=O)c2ccc(C)cc2)c(OC(=O)c2ccc(C)cc2)c1-3 (stereo not shown) [Ex. 1H, N-Propylnorapomorphine bis-4-methylbenzoate]
  ED50: 70 µmol/kg
[1]
  responders at 26 µmol/kg: 0%
  responders at 94 µmol/kg: 100%
[2]
  responders at 26 µmol/kg: 0%
  responders at 94 µmol/kg: 75%
[8]
  responders at 26 µmol/kg: 0%
  responders at 94 µmol/kg: 75%
[3]
  responders at 26 µmol/kg: 0%
  responders at 94 µmol/kg: 75%
[4]
  responders at 26 µmol/kg: 0%
  responders at 94 µmol/kg: 75%
[9]
  responders at 26 µmol/kg: 0%
[6]
  responders at 26 µmol/kg: 0%
  responders at 94 µmol/kg: 100%
[5]
  responders at 94 µmol/kg: 75%

## CCCN1CCc2cccc3c2C1Cc1ccc(OC(=O)c2ccc(OC)cc2)c(OC(=O)c2ccc(OC)cc2)c1-3 (stereo not shown) [Ex. 1J, N-Propylnorapomorphine bis-4-methoxybenzoate]
  ED50: 13 µmol/kg
[10]
  responders at 6.5 µmol/kg: 0%
[1]
  responders at 26 µmol/kg: 50%
[7]
  responders at 6.5 µmol/kg: 0%
[11]
  responders at 6.5 µmol/kg: 0%
[12]
  responders at 6.5 µmol/kg: 0%
[13]
  responders at 6.5 µmol/kg: 0%
[9]
  responders at 6.5 µmol/kg: 0%
  responders at 26 µmol/kg: 0%
[14]
  responders at 6.5 µmol/kg: 0%
[2]
  responders at 26 µmol/kg: 100%
[8]
  responders at 26 µmol/kg: 75%
[3]
  responders at 26 µmol/kg: 50%
[4]
  responders at 26 µmol/kg: 50%
[6]
  responders at 26 µmol/kg: 100%

## CCCN1CCc2cccc3c2C1Cc1ccc(OC(=O)c2cc(OC)cc(OC)c2)c(OC(=O)c2cc(OC)cc(OC)c2)c1-3 (stereo not shown) [Ex. 1K, N-Propylnorapomorphine bis-3,5-dimethoxybenzoate hydrochloride]
[10]
  responders at 1.6 µmol/kg: 0%
  responders at 3.2 µmol/kg: 0%
  responders at 6 µmol/kg: 0%
[1]
  responders at 26 µmol/kg: 50%
[7]
  responders at 1.6 µmol/kg: 0%
  responders at 6 µmol/kg: 0%
[11]
  responders at 1.6 µmol/kg: 0%
[12]
  responders at 1.6 µmol/kg: 0%
[13]
  responders at 1.6 µmol/kg: 0%
  responders at 3.2 µmol/kg: 0%
[9]
  responders at 1.6 µmol/kg: 0%
  responders at 3.2 µmol/kg: 0%
  responders at 6 µmol/kg: 0%
  responders at 26 µmol/kg: 0%
[14]
  responders at 1.6 µmol/kg: 0%
[2]
  responders at 3.2 µmol/kg: 25%
  responders at 26 µmol/kg: 100%
[8]
  responders at 3.2 µmol/kg: 50%
  responders at 6 µmol/kg: 75%
  responders at 26 µmol/kg: 50%
[3]
  responders at 3.2 µmol/kg: 50%
  responders at 6 µmol/kg: 75%
  responders at 26 µmol/kg: 50%
[6]
  responders at 3.2 µmol/kg: 50%
  responders at 6 µmol/kg: 75%
  responders at 26 µmol/kg: 100%
[4]
  responders at 6 µmol/kg: 50%
  responders at 26 µmol/kg: 50%
